From patent US11541050B2, “Pyrimidine derivatives for the treatment of viral infections” (JANSSEN SCIENCES IRELAND UC, priority 2011, dated 2023)

Legend:
Assay type in all cases: cell-based
Design in all cases: unit not given here
[1] = target: T1, human TLR7 (wild type sequence) (Homo sapiens, UniProt Q9NYK1); experiment: TLR7 cellular NFκB-luc reporter assay, wild type TLR7; conditions: lowest effective concentration, wild type TLR7
T1 construct: expressed in transfected cells; host or cells: HEK293
T1 sequence (Q9NYK1 27-1049): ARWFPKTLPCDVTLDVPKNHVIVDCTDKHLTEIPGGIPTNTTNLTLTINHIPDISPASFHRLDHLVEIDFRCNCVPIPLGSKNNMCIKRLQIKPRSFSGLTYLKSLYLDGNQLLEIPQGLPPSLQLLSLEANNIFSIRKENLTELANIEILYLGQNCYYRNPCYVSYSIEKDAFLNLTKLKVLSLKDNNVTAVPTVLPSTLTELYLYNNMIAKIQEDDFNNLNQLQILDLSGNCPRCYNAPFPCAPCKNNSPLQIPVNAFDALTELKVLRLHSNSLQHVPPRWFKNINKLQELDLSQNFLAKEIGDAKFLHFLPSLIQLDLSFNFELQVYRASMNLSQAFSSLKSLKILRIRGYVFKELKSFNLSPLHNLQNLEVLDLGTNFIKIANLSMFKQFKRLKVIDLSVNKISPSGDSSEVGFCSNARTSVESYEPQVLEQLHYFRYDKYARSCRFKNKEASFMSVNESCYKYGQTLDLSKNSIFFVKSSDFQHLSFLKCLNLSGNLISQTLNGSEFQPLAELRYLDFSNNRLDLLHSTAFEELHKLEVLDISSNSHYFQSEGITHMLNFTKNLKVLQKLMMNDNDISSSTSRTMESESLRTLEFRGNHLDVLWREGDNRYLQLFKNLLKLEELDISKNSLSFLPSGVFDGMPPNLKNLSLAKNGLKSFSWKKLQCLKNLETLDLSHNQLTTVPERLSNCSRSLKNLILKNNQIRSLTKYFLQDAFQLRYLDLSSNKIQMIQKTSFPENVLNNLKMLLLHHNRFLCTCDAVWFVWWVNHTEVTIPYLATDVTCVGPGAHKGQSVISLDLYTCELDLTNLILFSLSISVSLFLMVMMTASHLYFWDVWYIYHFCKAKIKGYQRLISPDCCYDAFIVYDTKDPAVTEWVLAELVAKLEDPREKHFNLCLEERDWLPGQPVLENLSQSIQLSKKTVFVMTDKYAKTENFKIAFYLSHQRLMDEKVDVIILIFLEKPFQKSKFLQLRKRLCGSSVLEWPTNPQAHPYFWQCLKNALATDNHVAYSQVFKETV
Procedure, shortened: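 HEK293, transient transfection 48 h (CMV-TLR7/8 WT or 2nd-LRR deletion + NFκB-luc); compound 6 h, 37 °C, 5% CO2; Steady Lite luciferase; quadruplicate dose-response; LEC = conc. ≥2× above assay SD.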

[2] = system: human TLR7 mutant sequence comprising a deletion in the second leucine-rich repeat; experiment: TLR7 cellular NFκB-luc reporter assay, mutant TLR7 with deletion in the second leucine-rich repeat; conditions: lowest effective concentration
Experimental: (§1) The ability of compounds to activate human TLR7 and/or TLR8 was assessed in a cellular reporter assay using HEK293 cells transiently transfected with a TLR7 or TLR8 expression vector and NFκB-luc reporter construct. In one instance the TLR expression construct expresses the respective wild type sequence or a mutant sequence comprising a deletion in the second leucine-rich repeat of the TLR.
(§2) Briefly, HEK293 cells were grown in culture medium (DMEM supplemented with 10% FCS and 2 mM Glutamine). For transfection of cells in 10 cm dishes, cells were detached with Trypsin-EDTA, transfected with a mix of CMV-TLR7 or TLR8 plasmid (750 ng), NFκB-luc plasmid (375 ng) and a transfection reagent and incubated for 48 hours at 37° C. in a humidified 5% CO2 atmosphere. […] Thirty microliters of cells were then dispensed into each well in 384-well plates, where 10 μL of compound in 4% DMSO was already present. Following 6 hours incubation at 37° C., 5% CO2, the luciferase activity was determined by adding 15 μl of Steady Lite Plus substrate (Perkin Elmer) to each well and readout performed on a ViewLux ultraHTS microplate imager (Perkin Elmer). Dose response curves were generated from measurements performed in quadruplicates.

[3] = system: human TLR8 mutant sequence comprising a deletion in the second leucine-rich repeat; experiment: TLR8 cellular NFκB-luc reporter assay, mutant TLR8 with deletion in the second leucine-rich repeat; conditions: lowest effective concentration
Experimental: as §1, §2

Row | Compound | TLR7-wt_LEC [1] | TLR7-dIRR2_LEC [2] | TLR8-dIRR2_LEC [3]
1 | CCCCNc1nc(N)ncc1O[C@@H](C)c1ccccn1 [Compound 262] | 0.658 | 0.168 | 0.363
2 | CCC[C@H](C)Nc1nc(N)ncc1OCc1nccc(OC)c1OC [Compound 263] | 0.049 | 0.159 | 0.056
3 | CCC[C@@H](CCO)Nc1nc(N)ncc1OCc1cc(C)nn1C [Compound 264] | 0.215 | 0.489 | 0.087
4 | CCCC(C)Nc1nc(N)ncc1OCCCc1ccc2c(c1)OCO2 (stereo not drawn) [Compound 265] | 0.752 | 3.700 | 0.591
5 | CCCC[C@@H](CCO)Nc1nc(N)ncc1OCCOC [Compound 266] | 1.070 | 1.890 | 0.557
6 | CCCC(C)Nc1nc(N)ncc1OCCOC (stereo not drawn) [Compound 267] | 4.880 | 0.719 | 1.710
7 | CCC[C@@H](CCO)Nc1nc(N)ncc1OCCOC [Compound 268] | 2.100 | 1.800 | 1.170
8 | CCCCNc1nc(N)ncc1OCCN1CCOCC1 [Compound 269] | 24.550 | 8.280 | 9.750
9 | CCC[C@@H](CCO)Nc1nc(N)ncc1OCc1cccc(C(N)=O)n1 [Compound 270] | 0.109 | 0.131 | 0.006
10 | CCC[C@@H](CCO)Nc1nc(N)ncc1OCc1cccnc1 [Compound 271] | 0.261 | 0.511 | 0.088
11 | CCCC[C@@H](CCO)Nc1nc(N)ncc1OCc1cccnc1 [Compound 272] | 0.207 | 1.110 | 0.084
12 | CCCC[C@@H](CO)Nc1nc(N)ncc1OCc1cccnc1 [Compound 274] | 1.140 | 0.303 | 0.357
13 | CCCCNc1nc(N)ncc1OCCOCC(F)(F)F [Compound 276] | 3.260 | 0.707 | 0.652
14 | CCC[C@@H](CO)Nc1nc(N)ncc1OCc1cccnn1 [Compound 277] | 1.180 | 0.438 | 0.135
15 | CCCC[C@@H](CO)Nc1nc(N)ncc1OCc1cccnn1 [Compound 278] | 0.880 | 0.270 | 0.136
16 | CCC[C@@H](CCO)Nc1nc(N)ncc1OCc1cccnn1 [Compound 279] | 0.724 | 1.100 | 0.034
17 | CCCC[C@@H](CCO)Nc1nc(N)ncc1OCc1cccnn1 [Compound 280] | 0.392 | 1.450 | 0.038

Row | Compound | TLR7-wt_LEC [1] | TLR7-dIRR2_LEC [2] | TLR8-dIRR2_LEC [3]
18 | CCCCNc1nc(N)ncc1OCc1ccc(CO)cc1 [Compound 281] | 0.472 | 1.630 | 0.191
19 | CCCC[C@@H](CCO)Nc1nc(N)ncc1OCc1cccc(C(N)=O)n1 [Compound 282] | 0.133 | 0.502 | 0.005
20 | CCC[C@@H](CCO)Nc1cc(O[C@@H]2CCc3c(Cl)ccnc32)nc(N)n1 [Compound 283] | 17.180 | 8.320 | 4.350
21 | CCC[C@@H](CCO)Nc1nc(N)ncc1O[C@H]1CCc2c(Cl)ccnc21 [Compound 284] | 9.910 | 10.300 | 2.150
22 | CCC[C@@H](CCO)Nc1nc(N)ncc1OCc1cn(-c2ccccc2)nn1 [Compound 285] | 0.266 | 0.530 | 0.036
23 | CCC[C@@H](CCO)Nc1nc(N)nc(C)c1OCc1nccc2ccccc12 [Compound 286] | 0.620 | 7.660 | 0.128
24 | CCCCNc1nc(N)ncc1OC[C@H](C)OC [Compound 287] | 15.530 | 5.380 | 3.560
25 | CCCCNc1nc(N)ncc1OCC(CC)OC (stereo not drawn) [Compound 288] | >25 | 10.200 | 14.890
26 | CCCCNc1nc(N)ncc1OCCOCC(C)C [Compound 289] | 0.875 | 0.930 | 0.647
27 | CCCCNc1nc(N)ncc1OCC(C)O (stereo not drawn) [Compound 290] | >25 | 9.110 | 12.460
28 | CCCC[C@@H](CCO)Nc1nc(N)ncc1OCc1ccncc1 [Compound 291] | 0.120 | 0.407 | 0.106
29 | CCC[C@@H](CCO)Nc1nc(N)ncc1OCc1ccccn1 [Compound 293] | 0.197 | 0.530 | 0.088
30 | CCCC[C@@H](CCO)Nc1nc(N)ncc1OCc1ccccn1 [Compound 294] | 0.133 | 0.521 | 0.042
31 | CCCC[C@@H](CCO)Nc1nc(N)ncc1OCc1cccc(C)n1 [Compound 295] | 0.047 | 0.430 | 0.034
32 | CCCC[C@@H](CCO)Nc1nc(N)ncc1OCCOC(C)C [Compound 296] | 0.664 | 2.540 | 0.310
33 | CCCC[C@@H](CCO)Nc1nc(N)ncc1OCc1nnn[nH]1 [Compound 297] | 2.810 | >25 | 2.540
34 | CCCC[C@@H](CCO)Nc1nc(N)ncc1OCc1c[nH]nn1 [Compound 298] | 0.394 | 2.840 | 0.058
